pIC50: −log10 of the molar value. Counter-ions that a name gives are not always drawn.
Key:
NCI-H1975 = format: in vivo, BALB/c nude mice; settings: 60 mg/kg
Text: Preparation method: dissolve the test compound in 20% PEG400+3% Tween80 to obtain a required concentration; dissolve the control group in 0.5% CMC+0.4% Tween80 to obtain a required concentration.
BALB/c nude mice (Shanghai xipuer-bikai experimental animals company), weight 16-18 g, female. BD matrigel, NCI-H1975 cell (ATCC)
Cells in logarithmic phase were collected. The ratio of medium to matrigel was 1:1. The concentration of cell was adjust to 3×10^7/ml and put into a ice box, then inoculated in each nude mice subcutaneously with 0.2 ml. Then carry out intragastric administration once a day for 5 days and stop administration for 2 days. Administrate for 9 days in total. Dosages are as follows:
The size and weight were measured. The length and width of tumors were measured individually with microcalipers. Tumor volume (V) and relative tumor volume (RTV) was calculated as formula. Day 12, all the nude mouse were killed and the tumors were taken out and pictured. The individual as follows: RTV=Vt/V0, where Vt is and V0 is. and the calculation formula is T/C (%)=mean RTV of the treated group/mean RTV of the control group×100%.
(1) Tumor volume (Tumor Volume, TV), calculation formula: […], wherein a and b presents length and width respectively.
(2) Relative Tumor Volume (RTV), calculation formula: RTV=Vt/V0.
Wherein TV0 is the volume on the day of initial treatment, TVt is the volume on each day of measurement.
(3) The relative tumor increment rate T/C (%), calculation formula: […]
TRTV: treated group RTV; CRTV: negative control group RTV.
Therapeutic effect of compound was expressed in terms of T/C %.

EGFR tyrosine kinase = target: T1, EGFR tyrosine kinase (Homo sapiens, UniProt P00533); assay: HTRF assay, inhibition of EGFR tyrosine kinase; format: biochemical; settings: HTRF method
T1 construct: purchased Sigma Aldrich
T1 sequence (P00533 25-1210): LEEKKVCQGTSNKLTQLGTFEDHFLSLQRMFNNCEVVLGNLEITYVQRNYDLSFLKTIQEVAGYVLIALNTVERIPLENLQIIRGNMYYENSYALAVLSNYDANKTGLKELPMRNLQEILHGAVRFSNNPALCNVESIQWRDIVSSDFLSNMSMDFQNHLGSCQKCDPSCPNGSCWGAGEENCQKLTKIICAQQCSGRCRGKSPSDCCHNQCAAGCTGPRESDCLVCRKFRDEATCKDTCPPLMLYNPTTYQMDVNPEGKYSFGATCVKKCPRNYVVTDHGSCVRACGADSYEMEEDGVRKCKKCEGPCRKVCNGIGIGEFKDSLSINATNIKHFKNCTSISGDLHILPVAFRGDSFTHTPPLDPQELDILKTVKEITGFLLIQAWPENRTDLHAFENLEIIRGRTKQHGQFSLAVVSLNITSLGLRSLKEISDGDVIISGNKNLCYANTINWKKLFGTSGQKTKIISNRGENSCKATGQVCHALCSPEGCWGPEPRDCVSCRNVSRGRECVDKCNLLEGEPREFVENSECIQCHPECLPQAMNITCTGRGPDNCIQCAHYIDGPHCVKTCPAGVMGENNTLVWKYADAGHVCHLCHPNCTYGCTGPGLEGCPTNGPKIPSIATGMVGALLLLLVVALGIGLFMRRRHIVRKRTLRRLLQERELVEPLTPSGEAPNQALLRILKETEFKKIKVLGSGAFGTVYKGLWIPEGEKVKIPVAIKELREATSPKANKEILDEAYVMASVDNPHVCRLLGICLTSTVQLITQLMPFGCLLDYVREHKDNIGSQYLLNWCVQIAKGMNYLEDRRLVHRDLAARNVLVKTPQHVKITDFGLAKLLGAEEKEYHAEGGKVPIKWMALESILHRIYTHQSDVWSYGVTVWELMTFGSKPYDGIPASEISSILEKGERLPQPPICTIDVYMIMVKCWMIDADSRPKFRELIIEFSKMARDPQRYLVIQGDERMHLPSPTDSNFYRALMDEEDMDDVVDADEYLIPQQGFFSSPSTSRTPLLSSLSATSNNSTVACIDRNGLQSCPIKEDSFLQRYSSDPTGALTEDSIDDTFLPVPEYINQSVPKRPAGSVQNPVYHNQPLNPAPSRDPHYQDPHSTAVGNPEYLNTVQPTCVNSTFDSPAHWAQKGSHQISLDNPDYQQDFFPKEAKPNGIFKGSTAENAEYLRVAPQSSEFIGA
Method: The activity of inhibitory against the kinase of the test compound is expressed by IC50. The assays are performed by Homogeneous time-resolved fluorescence (HTRF) method which is as follows: a series of synthesized analogues with gradient concentration are incubated for 5 minutes in enzymatic solution with specific concentration (for EGFR) at room temperature. Then proper amount of substrate and ATP are added into the reaction mixture to start the enzyme reaction. The assays of the specific concentration of compound is measured by Flexstation III of Molecular device company after the stop buffer and detecting liquid are added to the enzyme reaction system and hatch at room temperature for 1 hour. And the activity of inhibitory against the kinase of the test compound with different concentration will be calculated, then according to the 4-parameter equation, fit the inhibitory activity of the test compound with different concentration to get the IC50. EGFR is purchased from Sigma Aldrich. The HTRF KinEASE-TK is purchased from Cisbio Bioassays. ATP is purchased from Sigma Aldrich.

A431 cell = assay: Proliferation inhibition, A431 cells (CellTiter-Glo); format: cell-based; settings: Homo sapiens, A-431, 48 hours
Method: (§1) This example is to determine the proliferation inhibitory activity against wide type of high expression cell lines A431 of EGFR and mutant cell lines NCI-H1975^L858RT790M, the proliferation inhibitory activity in cell-based level of compound is expressed by IC50. The test method is as follows: both cell lines are purchased from American type culture collection (ATCC). The cells are seeded in a white and opaque 384-well culture plate with a proper concentration (A431: 20000 cells/ml medium; H1975: 15000 cells/ml medium), cultured at 37° C. with 5% CO2 for 24 hrs, a series of medicine with gradient concentration is added, generally 10 concentrations, cultured for another 48 hours under the previous conditions. The assays of the proliferation inhibitory activity against the A431 and H1975 cell of the test compounds are performed by the CellTiter-Glo Luminescent Cell Viability Assay and calculate the proliferation inhibitory activity of compound with different concentrations. CellTiter-Glo Luminescent Cell Viability Assay is purchased from Promega. Fit the data of proliferation inhibitory activity against A431 and H1975 of compounds with different concentrations with 4-parameter equation.

[1] = system: NCI-H1975 L858R T790M cell; assay: Proliferation inhibition, H1975 cells (CellTiter-Glo); format: cell-based; settings: Homo sapiens, 48 hours
Method: as §1

Compound	IC50 (EGFR tyrosine kinase)	pIC50 (A431 cell)	pIC50 [1]	Inhibition of growth of NCI-H1975 in nude mice (in words) (NCI-H1975; NCI-H1975 nude mice, 60 mpk)	Tolerability in mice (NCI-H1975; mouse, in vivo, po)
COc1cc2ncnc(Nc3ccc(F)c(Cl)c3)c2cc1NC(=O)/C(F)=C/CN(C)C [2-1(hydrochloride), (Z)—N-(4-((3-chloro-4-fluorophenyl)amino)-7-methoxyquinazolin-6-yl)-4-(dimethylamino)-2-fluorobut-2-enamide]	–	–	–	significantly inhibit the growth	well tolerated
C=C(F)C(=O)Nc1cc2c(Nc3ccc(F)c(F)c3F)ncnc2cc1OCCCN1CCOCC1 [Compound 32, N-[7-(3-morpholin-4-yl-propoxy)-4-(2,3,4-trifluoro-phenylamino)-quinazolin-6-yl]-2-fluoro-acrylamide]	0.72 nM	5.38	5.25	–	–
C=C(Cl)C(=O)Nc1cc2c(Nc3ccc(F)c(Cl)c3)ncnc2cc1OCCCN1CCOCC1 [Compound 35, N-[4-(3-chloro-4-fluoro-phenylamino)-7-(3-morpholin-4-yl-propoxy)-quinazolin-6-yl]-2-chloro-acrylamide]	0.97 nM	< 4.00	5.07	–	–
C=C(F)C(=O)Nc1cc2c(Nc3ccc(Br)c(Cl)c3F)ncnc2cc1OCCCN1CCOCC1 [Compound 38, N-[4-(4-bromo-3-chloro-2-fluoro-phenylamino)-7-(3-morpholin-4-yl-propoxy)-quinazolin-6-yl]-2-fluoro-acrylamide]	0.35 nM	6.74	5.96	–	–
C=C(F)C(=O)Nc1cc2c(Nc3ccc(F)c(Cl)c3F)ncnc2cc1OCC1CCC1 [Compound 47, N-[4-(3-chloro-2,4-difluoro-phenylamino)-7-cyclobutylmethoxy-quinazolin-6-yl]-2-fluoro-acrylamide]	1.88 nM	4.85	5.82	–	–
C=C(F)C(=O)Nc1cc2c(Nc3ccc(F)c(Cl)c3F)ncnc2cc1O[C@H]1CCN(C)C1 [Compound 51, (S)-N-[4-(3-chloro-2,4-difluoro-phenylamino)-7-(1-methyl-pyrrolidin-3-yloxy)-quinazolin-6-yl]-2-fluoro-acrylamide]	4.9 nM	4.70	5.14	–	–
C=C(F)C(=O)Nc1cc2c(Nc3cccc(Br)c3)ncnc2cc1OC [Compound 52, N-[4-(3-bromo-phenylamino)-7-methoxy-quinazolin-6-yl]-2-fluoro-acrylamide]	0.22 nM	5.80	6.33	–	–
C=C(F)C(=O)Nc1cc2c(Nc3cccc(Br)c3)ncnc2cc1OCC [Compound 53, N-[4-(3-bromo-phenylamino)-7-ethoxy-quinazolin-6-yl]-2-fluoro-acrylamide]	0.36 nM	4.44	6.00	–	–
C=C(F)C(=O)Nc1cc2c(Nc3cccc(C(F)(F)F)c3)ncnc2cc1OC [Compound 54, N-[7-methoxy-4-(3-trifluoromethyl-phenylamino)-quinazolin-6-yl]-2-fluoro-acrylamide]	1.1 nM	5.42	4.89	–	–
C=C(F)C(=O)Nc1cc2c(Nc3ccc(F)c(Cl)c3)ncnc2cc1OC [Compound 56, N-[4-(3-chloro-4-fluoro-phenylamino)-7-methoxy-quinazolin-6-yl]-2-fluoro-acrylamide]	0.22 nM	5.55	6.29	–	–
C=C(Cl)C(=O)Nc1cc2c(Nc3ccc(F)c(Cl)c3)ncnc2cc1OC [Compound 57, N-[4-(3-chloro-4-fluoro-phenylamino)-7-methoxy-quinazolin-6-yl]-2-chloro-acrylamide]	0.13 nM	5.12	5.89	–	–
C=C(Cl)C(=O)Nc1cc2c(Nc3cccc(C(F)(F)F)c3)ncnc2cc1OCC [Compound 58, N-[7-ethoxy-4-(3-trifluoromethyl-phenylamino)-quinazolin-6-yl]-2-chloro-acrylamide]	1 nM	4.57	5.08	–	–
C=C(Cl)C(=O)Nc1cc2c(Nc3cccc(Br)c3)ncnc2cc1OCC [Compound 59, N-[4-(3-bromo-phenylamino)-7-ethoxy-quinazolin-6-yl]-2-chloro-acrylamide]	0.63 nM	5.00	4.96	–	–
C=C(F)C(=O)Nc1cc2c(Nc3ccc(OCC4CC4)c(Cl)c3)ncnc2cc1OCCCN1CCOCC1 [Compound 61]	4.5 nM	6.10	6.00	–	–

Continued, in another order:

IC50 (EGFR tyrosine kinase)	pIC50 (A431 cell)	pIC50 [1]	Compound	Inhibition of growth of NCI-H1975 in nude mice (in words) (NCI-H1975; NCI-H1975 nude mice, 60 mpk)	Tolerability in mice (NCI-H1975; mouse, in vivo, po)
0.65 nM	< 4.00	5.28	C=C(Cl)C(=O)Nc1cc2c(Nc3ccc(F)c(Cl)c3F)ncnc2cc1OCCCN1CCOCC1 [Compound 34, N-[4-(3-chloro-2,4-difluoro-phenylamino)-7-(3-morpholin-4-yl-propoxy)-quinazolin-6-yl]-2-chloro-acrylamide]	–	–
4.7 nM	< 4.00	5.72	C=C(F)C(=O)Nc1cc2c(Nc3ccc(Cl)c(OC)c3)ncnc2cc1OCCCN1CCOCC1 [Compound 37, N-[4-(4-chloro-3-methoxy-phenylamino)-7-(3-morpholin-4-yl-propoxy)-quinazolin-6-yl]-2-fluoro-acrylamide]	–	–
1 nM	5.89	5.47	C=C(F)C(=O)Nc1cc2c(Nc3ccc(F)c(Cl)c3)ncnc2cc1OCCCN1CCCCC1 [Compound 40, N-[4-(3-chloro-4-fluoro-phenylamino)-7-(3-piperidin-l-yl-propoxy)-quinazolin-6-yl]-2-fluoro-acrylamide]	–	–
0.55 nM	6.28	5.62	C=C(F)C(=O)Nc1cc2c(Nc3ccc(F)c(Cl)c3)ncnc2cc1OCCCN(C)C [Compound 42, N-[4-(3-chloro-4-fluoro-phenylamino)-7-(3-dimethylamino-propoxy)-quinazolin-6-yl]-2-fluoro-acrylamide]	–	–
1.3 nM	5.77	5.47	C=C(F)C(=O)Nc1cc2c(Nc3ccc(F)c(Cl)c3)ncnc2cc1OCCCN1CCCC1 [Compound 43, N-[4-(3-chloro-4-fluoro-phenylamino)-7-(3-pyrrolidin-l-yl-propoxy)-quinazolin-6-yl]-2-fluoro-acrylamide]	–	–
0.29 nM	6.28	5.43	C=C(F)C(=O)Nc1cc2c(Nc3ccc(F)c(Cl)c3)ncnc2cc1OCCCN1CCN(C)CC1 [Compound 44, N-{4-(3-chloro-4-fluoro-phenylamino)-7-[3-(4-methyl-piperazin-1-yl)-propoxy]-quinazolin-6-yl}-2-fluoro-acrylamide]	–	–
0.65 nM	4.89	5.74	C=C(F)C(=O)Nc1cc2c(Nc3ccc(F)c(Cl)c3F)ncnc2cc1OCC1CC1 [Compound 48, N-[4-(3-chloro-2,4-difluoro-phenylamino)-7-cyclopropylmethoxy-quinazolin-6-yl]-2-fluoro-acrylamide]	–	–
5.5 nM	4.82	5.62	C=C(F)C(=O)Nc1cc2c(Nc3ccc(F)c(Cl)c3F)ncnc2cc1O[C@@H]1CCN(C)C1 [Compound 50, (R)-N-[4-(3-chloro-2,4-difluoro-phenylamino)-7-(1-methyl-pyrrolidin-3-yloxy)-quinazolin-6-yl]-2-fluoro-acrylamide]	–	–
0.97 nM	4.66	4.89	C=C(F)C(=O)Nc1cc2c(Nc3cccc(C(F)(F)F)c3)ncnc2cc1OCC [Compound 55, N-[7-ethoxy-4-(3-trifluoromethyl-phenylamino)-quinazolin-6-yl]-2-fluoro-acrylamide]	–	–

Reference: patent publication US9371292B2, “Quinazoline derivative, preparation method therefor, intermediate, composition and application thereof” (SHANGHAI PHARMACEUTICALS HOLDINGS CO., LTD., priority 2011, dated 2016)
